Measured values from patent publication US20060193880A1, “Method and compositions for attracting mosquitoes employing (R)-(+)-isomers of 1-alkyn-3-ols” (Bedoukian Research, Inc., priority 2005, published 2006).

Assays:
Format in all cases: in vivo
[1] = system: mosquitoes; experiment: Mosquito trap catch, Mosquito Magnet Pro units, Florida; conditions: release rates approx. 60 mg/day and 500 mg/day; 10-18 test days
Procedure: In tests performed in Florida using Mosquito Magnet Pro units, (R)-(+)-1-octyn-3-ol was compared with racemic 1-octyn-3-ol and (S)-(-)-1-octyn-3-ol at release rates of approximately 60 mg/day and 500 mg/day. The lures were rotated among the traps and compared to the same traps with no lure, all relative to a control trap. The (S)-(-)-1-octyn-3-ol caught an average of 39% more mosquitoes relative to the control than the traps when no lure was used (18 test days), the racemic 1-octyn-3-ol caught an average of 240% more mosquitoes than did no lure (10 test days), and the (R)-(+)-1-octyn-3-ol caught an average of 334% more mosquitoes than the traps with no lure (16 test days).

[2] = system: mosquitoes; experiment: Mosquito trap catch, Mosquito Magnet Liberty traps, Danbury, Conn.; conditions: porous frit, 1 gram, releasing approx. 1 mg/h, rotated twice among four traps over eight days
Procedure: Tests were conducted with the Mosquito Magnet Liberty model manufactured by American Biophysics Corp. The traps were spaced 65-70 feet apart at the edge of a wetland in Danbury, Conn., at least 25 feet from any buildings. 1 gram of test chemical was added to a clean porous frit of the type normally used in the trap, releasing approximately 1 mg/h. (R)-(+)-1-octyn-3-ol, (S)-(-)-1-octyn-3-ol, (R)-(-)-1-octen-3-ol, and racemic 1-octen-3-ol were rotated twice among four traps over eight days, and the results for each attractant were compared.

[3] = system: mosquitoes; experiment: Mosquito trap catch with wax lure and CO2, model 1012 traps, Connecticut; conditions: wax lure, approx. 0.17 mg/hr release, CO2 approx. 140 ml/minute, average of four three-day cycles
Procedure: The following tests were conducted in Connecticut in September 2004. Mosquito traps model 1012 manufactured by John W. Hock Company in Gainesville, Florida were used in these experiments. The traps use a stream of CO2 directed in the vicinity of a collection bag, with a fan used to blow mosquitoes into the bag. The light supplied with the trap was turned off. The traps were spaced 65-70 feet apart at the edge of a wetland in Danbury, Conn., at least 25 feet from any buildings. The (R) and (S)-1-octyn-3-ol was incorporated into a wax lure of the type manufactured by BioSensory, Inc. and placed near a stream of CO2 which was being released at a rate of approximately 140 ml/minute. The traps were operated from approximately 4:00 PM until 9:00 AM the next day. Daytime temperatures were 70-75° F. during the trials. Average weight loss from the wax lures during the test was approximately 4 mg/day, or 0.17 mg/hr. Three traps were used, with either (R)-1-Octyn-3-ol, (S)-1-Octyn-3-ol, or no treatment, rotated among the traps over a three-day cycle. Four complete cycles were performed and the results for each treatment were averaged.
The traps with no attractant were considered as the baseline catch of mosquitoes and the results of the catches with the isomers were compared to this baseline value.

## C#CC(O)CCCCC (racemic) [racemic 1-octyn-3-ol, 1-octyn-3-ol]
[1]
  average more mosquitoes caught than the traps with no lure, relative to a control trap: 240%

## C#C[C@H](O)CCCCC [(R)-(+)-1-octyn-3-ol]
[1]
  average more mosquitoes caught than the traps with no lure, relative to a control trap: 334%
[2]
  more mosquitoes caught than the trap with the 50:50 racemic mixture of 1-octen-3-ol: 34%
[3]
  more mosquitoes captured than the baseline (traps with no attractant): 120%

## C#C[C@@H](O)CCCCC [(S)-(-)-1-octyn-3-ol]
[1]
  average more mosquitoes caught than the traps with no lure, relative to a control trap: 39%
[2]
  less mosquitoes caught than the trap with the 50:50 racemic mixture of 1-octen-3-ol: 23%
[3]
  more mosquitoes captured than the baseline (traps with no attractant): 65%
